Source: US20260202298A1, “HIGH-THROUGHPUT MEASUREMENT OF P[…] PARTICLE COUNTS, DISTRIBUTIONS, AND COMPOSITION” (priority 2021, published 2026)

What was measured:
[1] = tested on: XUd (WT1) or PR8 (WT2) influenza viruses; type: cell-based, influenza virus in MDCK cells; conditions: at higher concentrations
[2] = tested on: A/PR8/34 or A/Ud/72 (with X31 or A/Aichi/68 HA) IAV; type: cell-based, influenza A virus in human lung epithelial cell line Calu3; conditions: FIG. 12B, PR8 and XUd viruses

| SMILES | effect on virion yield [1] | size of individual virus particles [1] | virion aggregation [1] | virion yield vs. fraction of filamentous particles produced [2] |
| --- | --- | --- | --- | --- |
| CCOC(=O)C1=C[C@@H](OC(CC)CC)[C@H](NC(C)=O)[C@@H](N)C1 [oseltamivir] | reduces virion yield | remains enriched in spherical particles | induces virion aggregation | – |
| COC(=O)OCOc1c2n(ccc1=O)N([C@@H]1c3ccccc3SCc3c1ccc(F)c3F)[C@@H]1COCCN1C2=O [baloxavir, baloxavir marboxil] | – | – | – | lower virion yields are associated with increased fraction of filamentous particles produced |
